{"source": "patent EP2535710A1", "about": "“Method for determining the immune toxicity of a compound in vitro” (Rijksinstituut Voor Volksgezondheid En Milieu, priority 2011, dated 2012)", "key": {"[1]": {"tested_on": "cells", "settings": "TBTO concentrations higher than 1µM and incubation times longer than 6h; refs [10, 21]; cited from earlier work"}, "[2]": {"tested_on": "Matrin 3", "test": "Western blot analysis of TBTO-treated and control cell extracts", "type": "cell-based, Murine", "settings": "Immunoblot, TBTO-treated cells versus control extract; EL4 cells, 0.5 µM TBTO, 6 hr; Fig. 1 b", "description": "(§1) Murine EL4 cells were cultured as described before.\n(§2) After exposure, cell suspensions were centrifuged at 1200 rpm for 10 min at 4 °C and the pellets were washed in 20 mL phosphate-buffered saline (PBS, pH 7.2) and centrifuged again. This procedure was repeated twice. The obtained cell pellet of each sample or control was then suspended in 5 mL of phosphoprotein lysis buffer prepared following the instructions of Phosphoprotein Purification Kit (Qiagen). This volume of the lysis buffer contained, in addition to the detergent CHAPS and Benzonase (10 µL), one tablet of protease inhibitor and Phosphatase Inhibitor Cocktail 1 (10 µL). The cell suspension was incubated on ice for 30 min and vortexed briefly and gently every 10 min. After that, the cell lysate was centrifuged at 10.000 rpm for 30 min at 4 °C. The supernatant was then taken and protein concentration determined according to Bradford. A total amount of 2.5 mg protein, at the concentration of 0.1 mg/mL, was loaded on the affinity column, which was pre-equilibrated with lysis buffer as recommended by the manufacturer. The chromatography was performed at room temperature. […] These enriched fractions were combined and the protein concentration was determined. […]"}, "[3]": {"tested_on": "RPS6KB1 (Thr444/Ser447)", "test": "Western blot analysis of TBTO-treated and control cell extracts", "type": "cell-based, Murine", "settings": "treated cells compared to control extract, EL4 cells, 0.5 µM TBTO, 6 hr, Figure 1a", "description": "as §1, §2"}, "[4]": {"tested_on": "MAPK1", "test": "Phosphoproteome analysis of TBTO-treated cells (phosphoprotein and TiO2 phosphopeptide enrichment, nano-LC/MS/MS)", "type": "cell-based, Murine", "settings": "whole protein; abundantly present in control cells; EL4 cells, 0.5 µM TBTO, 6 hr", "description": "as §1, §2"}, "[5]": {"tested_on": "Murine EL4 cells", "settings": "trypan blue dye exclusion, 0.5 µM TBTO, 37 °C for 6 hr, range in all experiments", "protocol": "Murine EL4 cells were cultured as described before [10]. Each treated sample or control contained 5×10^7 cells in a volume of 20 mL. A 1 mM TBTO stock solution was prepared in ethanol and 10 µl of this solution was added to each one of the cell suspension samples so that the final concentration of TBTO was 0.5 µM, whereas 10 µl of ethanol without TBTO was added to the control cells. Two independent replicate experiments for both treated sample and control were performed. Subsequently, cells were incubated at 37 °C for 6 hr."}}}
{"smiles": "CCC[CH2][Sn]([CH2]CCC)([CH2]CCC)[O][Sn]([CH2]CCC)([CH2]CCC)[CH2]CCC", "note": "[TBTO, tributyltin oxide]", "values": [{"measurement": "apoptosis of cells", "setting": "[1]", "value": "caused apoptosis of cells"}, {"measurement": "band corresponding to Matrin 3 (ca. 125-130 kDa)", "setting": "[2]", "value": "not detectable"}, {"measurement": "intensity signal of the band corresponding to Thr444/Ser447", "setting": "[3]", "value": "decrease in the intensity signal"}, {"measurement": "detection of MAPK1 phosphoprotein in TBTO-treated cells", "setting": "[4]", "value": "not detected"}, {"measurement": "Cell viability", "setting": "[5]", "value": "85-90%"}]}
